From ChEMBL document CHEMBL5584338, “Design, Synthesis, and Biological Evaluation of 5-Amino-4-fluoro-1H-benzo[d]imidazole-6-carboxamide Derivatives as Novel and Potential MEK/RAF Complex Inhibitors Based on the "Clamp" Strategy” (J Med Chem, 2024) come the findings set out here.

Calls of active or inactive are those of the source. The calls are words filed in the database; no cut-off is given here.

For data set [1], the target named is T1, Dual specificity mitogen-activated protein kinase kinase 1 (Homo sapiens, UniProt Q02750). Nature of the data set: Inhibition of MEK1 (unknown origin) assessed as remaining activity at 0.1 uM relative to control.
Data set [2] has as its system HCT-116. Nature of the data set: Inhibition of colony formation in human HCT-116 cells incubated for 10 days by crystal violet staining based analysis. To be noted: dose 0.1-10 µM, time 10.0 day. The data set is classed as functional, cell-based.
The subject of data set [3] is HCT-116. Nature of the data set: Antitumor activity against human HCT-116 cells harboring KRAS G13D mutant xenografted in NU/NU mouse at 30 mg/kg, iv administered 5 times a week for 16 days relative to control. The data set is classed as functional. To be noted: HCT-116, 384 h, time 16 day, read-out: TGI. In general terms: In xenograft studies the graft and the host belong to different species.

The test system of data set [4] is HCT-116. Nature of the data set: Antiproliferative activity against human HCT-116 cells harboring KRAS G13D mutant incubated for 72 hrs by CCK8 assay. The data set is classed as functional, cell-based. As to conditions: HCT-116, 72 h. (In general: Tetrazolium assays rely on reduction of a dye to a coloured formazan, in cell work by metabolically active cells.)
Data set [5] relates to Mitogen-activated protein kinase 1/3 (ERK1/2) (Homo sapiens). Put plainly: Inhibition of ERK phosphorylation in human MIA PaCa-2 cells at lower concentration incubated for at least 48 hrs by Western blot analysis. On the technique in general: In western blotting, separated proteins are transferred to a membrane and probed.
Data set [6] concerns the target T1, Dual specificity mitogen-activated protein kinase kinase 1. Put plainly: Inhibition of MEK1 (unknown origin).
A short description of data set [7]: Antitumor activity against mouse C26 cells harboring KRAS G12D mutant xenografted in BALB/c mouse at 30 mg/kg, iv administered 5 times a week for 12 days relative to control. Type of data set: functional, C-26. As to conditions: C26, 288 h, time 12 day, read-out: TGI.
The nature of data set [8]: Toxicity in BALB/c mouse xenografted with […] harboring KRAS G12D mutant assessed as animal death at 5 to 30 mg/kg, iv administered 5 times a week for 12 days. Type of data set: organism-based, C-26. As to conditions: in vivo, 288 h, dose 5-30 mg/kg, time 12 day.
The test system of data set [9] is MIA PaCa-2. Put plainly: Induction of apoptosis in human MIA PaCa-2 cells assessed as late apoptotic cells at 1 uM incubated for 24 hrs by Annexin V-FITC/PI staining based flow cytometry (reference value: 6.90 %). The data set is classed as functional.
The next data set relates to C-26. Nature of the data set: Antitumor activity against mouse C26 cells harboring KRAS G12D mutant xenografted in BALB/c mouse assessed as tumor growth inhibition administered intravenously 5 times a week for 12 days. The data set is classed as functional, cell-based. To be noted: dose 5-30 mg/kg, route iv, time 12.0 day.
The nature of data set [10]: Toxicity in NU/NU mouse xenografted with human HCT-116 cells harboring KRAS G13D mutant assessed as animal death at 15 to 30 mg/kg, iv administered 5 times a week for 16 days. The data set is classed as organism-based. To be noted: in vivo, 384 h, dose 15-30 mg/kg, time 16 day.
Data set [11] in a line: Cmax in Sprague-Dawley rat at 5 mg/kg, iv. The data set is classed as ADME, organism-based. To be noted: in vivo.
Data set [12] addresses Dual specificity mitogen-activated protein kinase kinase 2 (Homo sapiens) (UniProt P36507). Put plainly: Binding affinity to MEK2 (unknown origin) at 1 uM by kinase profiling analysis.
Data set [13] is described as follows: Stability in human liver microsomes assessed as half life at 200 uM preincubated for 5 mins followed by NADPH addition measured upto 60 mins by LC-MS/MS analysis. Type of data set: ADME, Microsome. To be noted: time 65 min.
In data set [14] the target is RAF proto-oncogene serine/threonine-protein kinase (Homo sapiens) (UniProt P04049). Nature of the data set: Binding affinity to CRAF (unknown origin) at 1 uM by kinase profiling analysis.
The test system of data set [15] is HCT-116. Nature of the data set: Antiproliferative activity against human HCT-116 cells harboring KRAS G13D mutant at 1 uM incubated for 72 hrs by CCK8 assay relative to control. Type of data set: functional.
Data set [16] has as its system MIA PaCa-2. Put plainly: Induction of apoptosis in human MIA PaCa-2 cells assessed as late apoptotic cells at 5 uM incubated for 24 hrs by Annexin V-FITC/PI staining based flow cytometry (reference value: 6.90 %). The data set is classed as functional.
The subject of data set [17] is MIA PaCa-2. Nature of the data set: Induction of apoptosis in human MIA PaCa-2 cells assessed as early apoptotic cells at 1 uM incubated for 24 hrs by Annexin V-FITC/PI staining based flow cytometry (reference value: 5.02 %). The data set is classed as functional.
Data set [18] relates to MIA PaCa-2. Nature of the data set: Induction of apoptosis in human MIA PaCa-2 cells assessed as early apoptotic cells at 0.25 uM incubated for 24 hrs by Annexin V-FITC/PI staining based flow cytometry (reference value: 5.02 %). Type of data set: functional.

T1 sequence (Q02750 whole entry): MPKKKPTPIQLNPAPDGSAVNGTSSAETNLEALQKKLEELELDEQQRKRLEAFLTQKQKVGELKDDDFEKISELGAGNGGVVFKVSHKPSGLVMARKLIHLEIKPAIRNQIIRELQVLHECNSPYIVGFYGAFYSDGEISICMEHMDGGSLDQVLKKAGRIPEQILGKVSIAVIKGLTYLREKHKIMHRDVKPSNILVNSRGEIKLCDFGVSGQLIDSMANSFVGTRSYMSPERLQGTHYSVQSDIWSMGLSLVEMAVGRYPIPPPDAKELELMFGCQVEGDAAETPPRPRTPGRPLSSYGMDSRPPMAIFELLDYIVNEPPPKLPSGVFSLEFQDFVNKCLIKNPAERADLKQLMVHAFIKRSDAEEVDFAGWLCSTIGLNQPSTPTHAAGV
RAF proto-oncogene serine/threonine-protein kinase (Homo sapiens), sequence (P04049 whole entry): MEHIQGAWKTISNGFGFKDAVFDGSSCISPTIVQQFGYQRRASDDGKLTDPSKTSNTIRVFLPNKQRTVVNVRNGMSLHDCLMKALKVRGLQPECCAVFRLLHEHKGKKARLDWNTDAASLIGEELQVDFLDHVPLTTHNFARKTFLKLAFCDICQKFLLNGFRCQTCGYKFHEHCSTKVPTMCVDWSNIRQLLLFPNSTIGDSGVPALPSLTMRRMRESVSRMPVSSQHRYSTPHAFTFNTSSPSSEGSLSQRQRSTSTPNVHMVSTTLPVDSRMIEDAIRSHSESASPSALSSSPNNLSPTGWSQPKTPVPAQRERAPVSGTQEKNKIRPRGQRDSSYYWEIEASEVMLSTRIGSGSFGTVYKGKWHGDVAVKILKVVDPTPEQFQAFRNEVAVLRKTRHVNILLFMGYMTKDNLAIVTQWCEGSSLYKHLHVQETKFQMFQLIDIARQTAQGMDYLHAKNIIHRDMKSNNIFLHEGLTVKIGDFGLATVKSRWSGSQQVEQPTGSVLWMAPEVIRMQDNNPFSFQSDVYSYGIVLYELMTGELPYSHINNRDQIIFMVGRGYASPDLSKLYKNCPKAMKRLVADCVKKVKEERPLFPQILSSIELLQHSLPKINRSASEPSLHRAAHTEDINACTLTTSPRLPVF
Dual specificity mitogen-activated protein kinase kinase 2 (Homo sapiens), sequence (P36507 whole entry): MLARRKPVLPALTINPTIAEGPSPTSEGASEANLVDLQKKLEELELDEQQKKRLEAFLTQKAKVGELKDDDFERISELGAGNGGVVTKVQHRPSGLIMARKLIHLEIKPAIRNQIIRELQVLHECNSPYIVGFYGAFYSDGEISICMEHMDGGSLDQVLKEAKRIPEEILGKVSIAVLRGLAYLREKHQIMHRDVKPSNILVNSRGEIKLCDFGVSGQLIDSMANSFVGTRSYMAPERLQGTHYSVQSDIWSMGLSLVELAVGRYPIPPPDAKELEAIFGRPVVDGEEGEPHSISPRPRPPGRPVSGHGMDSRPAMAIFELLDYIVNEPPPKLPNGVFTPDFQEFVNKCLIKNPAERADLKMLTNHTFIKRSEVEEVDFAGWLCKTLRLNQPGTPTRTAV

Consider `CCNS(=O)(=O)Nc1cccc(Cn2cnc3c(F)c(Nc4ccc(C5CC5)cc4F)c(C(=O)NOCCO)cc32)c1F`, for which the Activity was 25% in [1]; “Non-Toxic” in data set [8]; 8.21% in the data set on MIA PaCa-2 [9]; “Non-Toxic” in [10]; 9.09% in the data set with MIA PaCa-2 [16]; 32.3% in the data set on MIA PaCa-2 [17]. For the same compound, the Activity in the data set on MIA PaCa-2 [18] was determined as 30.9%. In addition, the inhibition (usually the share of the control response that was lost under treatment) in the data set with HCT-116 [2] was “Dose-Dependent Effect”. Also, the figures for the inhibition in vivo at 30 mg/kg (in the data set with HCT-116 [3]; in data set [7]) were 93% and 70%, respectively. Also, the figures for the IC50 (in the data set on HCT-116 [4]; in data set [6]) were 79 nM and 28 nM, respectively. Moreover, the inhibition result (in data set [5]; in the data set on C-26) was “Active” throughout. The peak level in [11] (Cmax) was 603 ng/mL. Also, the outcome in data set [12] and in [14] was Active. In data set [13], the half-life – broadly, how long it takes for the measured level to halve – at 200 µM worked out at 58.7 min. The compound also displayed an inhibition at 1 µM in the data set on HCT-116 [15] of 61.5%.
